Experimental data taken from PubChem BioAssay (NCI).
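Growth conditions: 96-well plates. Treatment: test compound, 48 hours, 5 concentrations. Analysis: linear interpolation between bracketing concentrations; unreached endpoints set to highest concentration. Abbreviation: GI50, concentration required for 50% inhibition of growth. TGI: total growth inhibition.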

Tests used:
Assay in all cases: growth of human tumour cells (NCI), 48 h
A549 NSCLC = test system: A549 NSCLC
COLO 205 colon = test system: COLO 205 colon
HOP-62 NSCLC = test system: HOP-62 NSCLC
IGROV1 ovarian = test system: IGROV1 ovarian
MALME-3M melanoma = test system: MALME-3M melanoma
OVCAR-5 ovarian = test system: OVCAR-5 ovarian
SNB-19 CNS = test system: SNB-19 CNS
HS 578T breast = test system: HS 578T breast
MDA-MB-231 breast = test system: MDA-MB-231 breast
OVCAR-3 ovarian = test system: OVCAR-3 ovarian

Structure (SMILES)	TGI (A549 NSCLC) [µM]	TGI (COLO 205 colon) [µM]	TGI (HOP-62 NSCLC) [µM]	TGI (IGROV1 ovarian) [µM]	TGI (MALME-3M melanoma) [µM]	TGI (OVCAR-5 ovarian) [µM]	TGI (SNB-19 CNS) [µM]	GI50 (A549 NSCLC) [µM]	GI50 (COLO 205 colon) [µM]	GI50 (HOP-62 NSCLC) [µM]	GI50 (HS 578T breast) [µM]	TGI (HS 578T breast) [µM]	GI50 (IGROV1 ovarian) [µM]	GI50 (MDA-MB-231 breast) [µM]	TGI (MDA-MB-231 breast) [µM]	GI50 (OVCAR-3 ovarian) [µM]	TGI (OVCAR-3 ovarian) [µM]	GI50 (OVCAR-5 ovarian) [µM]	GI50 (SNB-19 CNS) [µM]	GI50 (MALME-3M melanoma) [µM]
CNS(=O)(=O)NNS(=O)(=O)c1ccc(Br)cc1	> 100	> 100	> 100	> 100	> 100	> 100	> 100	–	–	–	–	–	–	–	–	–	–	–	–	–
N#Cc1c(N/N=C/c2ccc(Cl)cc2Cl)nc(N)nc1N1CCCC1	65	> 100	32.4	39.5	–	99.7	> 100	29.6	88.1	15.2	2.4	7.01	13.8	24.8	> 100	25.5	> 100	24.6	49.9	–
Cc1cc(NS(=O)(=O)c2ccc(Nc3c4ccccc4nc4c(C(=O)N5CCN(CCO)CC5)ccc(Cl)c34)cc2)no1	> 100	> 100	> 100	> 100	> 100	> 100	> 100	–	–	–	–	–	–	–	–	–	> 100	–	–	–
Cc1ccc(C)c(N=C2NC(=O)C(CC(=O)Nc3ccc(Cl)cc3Cl)S2)c1 (stereo unspecified)	> 100	> 100	> 100	> 100	> 100	> 100	> 100	–	–	–	–	–	–	–	–	–	> 100	–	–	–
COc1cc2c(c(OC)c1OC)-c1ncc3cc4c(cc3c1C2)OCO4	97.9	> 100	46.6	> 100	–	> 100	> 100	21.1	29.7	21.7	14.7	49.6	12.8	13.8	88.8	15.5	38.1	> 100	> 100	–
CC(=O)O[C@H]1CCC2[C@@H]3CCC4Nc5[nH]ncc5C[C@]4(C)C3CC[C@@]21C (stereo partly specified)	> 100	> 100	> 100	> 100	> 100	> 100	> 100	–	–	–	–	–	–	–	–	–	> 100	–	–	–
[N-]=[N+]=Nc1cc(=O)n2c3c(cccc13)CCC2	> 100	> 100	> 100	> 100	> 100	–	–	–	–	–	–	> 100	–	–	> 100	–	> 100	–	–	–
CCn1c(=O)c2c(=O)c3c4c(oc3oc2c2ccccc21)C(=O)c1ccccc1C4=O	> 100	> 100	> 100	> 100	> 100	> 100	> 100	> 100	> 100	> 21.6	19.2	> 100	> 50.1	–	–	0.627	4.51	> 100	> 57.7	> 100
CC(C)C(=O)NS(=O)(=O)c1ccccc1	> 100	> 100	> 100	> 100	> 100	> 100	> 100	–	–	–	–	–	–	–	–	–	> 100	–	–	–
